Results taken from patent US9290465B2, “Substituted isoxazole amine compounds as inhibitors of SCD1” (Hoffmann-La Roche Inc., priority 2012, dated 2016).
Structures can show the parent of a compound that is named as a salt.

Test system: not given
Test: not given
Details: not given

Structure (SMILES) | melting point
Nc1conc1-c1ccc(OCc2ccc(Cl)cc2)cc1 (as salt: hydrochloride) [Example 25, 3-[4-(4-Chloro-benzyloxy)-phenyl]-isoxazol-4-ylamine hydrochloride] | 174 to 176 °C
COc1ccc(COc2ccc(-c3nocc3N)cc2)cc1 [Example 4, 3-[4-(4-Methoxy-benzyloxy)-phenyl]-isoxazol-4-ylamine] | 92 to 98 °C

Molecular target: T1, SCD1 (Mus musculus, UniProt P13516)
T1 construct: Mouse liver microsomes, prepared from mice fed a high-carbohydrate diet, were a source of the SCD; from tissue; host or cells: mouse liver microsomes (mice fed a high-carbohydrate diet)
T1 sequence (P13516 1-355): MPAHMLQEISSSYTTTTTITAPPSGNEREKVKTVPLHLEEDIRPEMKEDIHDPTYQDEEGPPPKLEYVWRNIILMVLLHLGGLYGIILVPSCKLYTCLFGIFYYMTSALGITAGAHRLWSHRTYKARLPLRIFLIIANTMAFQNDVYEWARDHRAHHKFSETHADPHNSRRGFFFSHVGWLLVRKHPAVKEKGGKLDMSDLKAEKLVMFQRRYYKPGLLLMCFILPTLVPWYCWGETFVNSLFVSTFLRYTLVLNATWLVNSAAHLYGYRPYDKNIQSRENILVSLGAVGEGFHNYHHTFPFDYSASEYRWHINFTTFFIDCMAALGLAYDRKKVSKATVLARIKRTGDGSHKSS
Test: SCD assay: release of tritiated water from desaturation of 9,10-3H-stearoyl CoA, mouse liver microsomes
Type: biochemical
Details: mouse liver microsomes as SCD source; 300 nM (9,10) 3H-stearoyl CoA; 25 minutes at rt; read-out: IC50 (nM), in vitro inhibition of SCD1
From the text: Stearoyl CoA desaturase activity was monitored by a modification of the acyl carrier protein assay described by B. R. Talamo and K. Bloch in Anal. Biochem. 1968, 29, 300-304. The SCD assay monitors the release of tritiated water from the desaturation of 9,10-^3H-stearoyl CoA.
Mouse liver microsomes, prepared from mice fed a high-carbohydrate diet, were a source of the SCD and cyt b5 and cyt b5 reductase, necessary accessory proteins for the coupled reaction. Reaction mixtures for compound titrations contained 50 mM Tris HCl pH 7.5, 100 mM NaCl, 0.165 mg/mL BSA, 2.4% DMSO, 1 mM NADH, 0.03% T-20, and 300 nM (9,10) ^3H-stearoyl CoA (Perkin-Elmer). Reactions were initiated upon the addition of 4 ug/mL SCD microsomes. Incubations were terminated after 25 minutes at rt with cold 6% TCA. After standing 10 minutes at 4° C., samples were centrifuged 15 minutes at 4000 rpm to pellet precipitated protein. Supernatants were added to microtiter plates containing suspensions of activated charcoal (Darco G-60, Fisher Scientific) and mixed by inversion. Plates were then centrifuged to separate ^3H—H2O product from charcoal-bound reactants. Supernatants were quantitated in a Perkin Elmer Topcount 384 after solubilization in ScintiSafe Plus 50% (Fisher Scientific).
Inhibition (%) of SCD activity by compounds was calculated according to the following formula: % Inhibition=100*[1−(CPMsample−CPMblank)/(CPMtotal−CPMblank)].

Structure (SMILES) | IC50
Nc1conc1-c1ccc(OCc2ccc(F)cc2)cc1 [Example 2, 3-[4-(4-Fluoro-benzyloxy)-phenyl]-isoxazol-4-ylamine] | 612 nM
Nc1conc1-c1ccc(OCc2ccccc2)cc1 [Example 3, 3-(4-Benzyloxy-phenyl)-isoxazol-4-ylamine] | 464 nM
COc1ccc(COc2ccc(-c3nocc3N)cc2)cc1 [Example 4, 3-[4-(4-Methoxy-benzyloxy)-phenyl]-isoxazol-4-ylamine] | 104 nM
COC(=O)c1ccc(COc2ccc(-c3nocc3N)cc2)cc1 [Example 5, 4-[4-(4-Amino-isoxazol-3-yl)-phenoxymethyl]-benzoic acid methyl ester hydrochloride] | 152 nM
CS(=O)(=O)c1ccc(COc2ccc(-c3nocc3N)cc2)cc1 [Example 6, 3-[4-(4-Methanesulfonyl-benzyloxy)-phenyl]-isoxazol-4-ylamine] | 40 nM
CS(=O)(=O)c1ccc(NCc2ccc(-c3nocc3N)cc2)cc1 [Example 7, 3-{4-[(4-methanesulfonyl-phenylamino)-methyl]-phenyl}-isoxazol-4-ylamine hydrochloride] | 817 nM
CS(=O)(=O)c1ccc(COc2ccc(-c3nocc3N)cc2)c(Cl)c1 [Example 8, 3-[4-(2-Chloro-4-methanesulfonyl-benzyloxy)-phenyl]-isoxazol-4-ylamine] | 191 nM
CS(=O)(=O)c1ccc(CCc2ccc(-c3nocc3N)cc2)cc1 [Example 9, 3-{4-[2-(4-Methanesulfonyl-phenyl)-ethyl]-phenyl}-isoxazol-4-ylamine] | 280 nM
Nc1conc1-c1ccc(OCCc2ccccc2)cc1 [Example 10] | 1930 nM
Nc1conc1-c1ccc(OCCCc2ccccc2)cc1 [Example 11, 3-[4-(3-Phenyl-propoxy)-phenyl]-isoxazol-4-ylamine] | 372 nM
CS(=O)(=O)c1ccc(COc2ccc(-c3nocc3N)nc2)cc1 [Example 12, 3-[5-(4-Methanesulfonyl-benzyloxy)-pyridin-2-yl]-isoxazol-4-ylamine] | 466 nM
Cc1onc(-c2ccc(OCc3ccc(S(C)(=O)=O)cc3)cc2)c1N [Example 13, 3-[4-(4-Methanesulfonyl-benzyloxy)-phenyl]-5-methyl-isoxazol-4-ylamine] | 864 nM
Nc1conc1-c1ccc(OCc2cccnc2)cc1 [Example 14, 3-[4-(Pyridin-3-ylmethoxy)-phenyl]-isoxazol-4-ylamine] | 2200 nM
Nc1conc1-c1ccc(OCC(=O)c2ccccc2)cc1 [Example 15, 2-[4-(4-Amino-isoxazol-3-yl)-phenoxy]-1-phenyl-ethanone hydrochloride] | 395 nM
Nc1conc1-c1ccc(OCc2ccc([N+](=O)[O-])cc2)cc1 [Example 16, 3-[4-(4-Nitro-benzyloxy)-phenyl]-isoxazol-4-ylamine hydrochloride] | 264 nM
N#Cc1ccc(COc2ccc(-c3nocc3N)cc2)cc1 [Example 17, 4-[4-(4-Amino-isoxazol-3-yl)-phenoxymethyl]-benzonitrile hydrochloride] | 603 nM
N#Cc1cccc(COc2ccc(-c3nocc3N)cc2)c1 [Example 18, 3-[4-(4-Amino-isoxazol-3-yl)-phenoxymethyl]-benzonitrile hydrochloride] | 315 nM

Structure (SMILES) | IC50
Nc1conc1-c1ccc(OCc2ccc(C(F)(F)F)cc2)cc1 [Example 19, 3-[4-(4-Trifluoromethyl-benzyloxy)-phenyl]-isoxazol-4-ylamine hydrochloride] | 391 nM
Nc1conc1-c1ccc(OCc2ccc(OC(F)(F)F)cc2)cc1 [Example 20, 3-[4-(4-Trifluoromethoxy-benzyloxy)-phenyl]-isoxazol-4-ylamine hydrochloride] | 135 nM
Nc1conc1-c1ccc(OCc2cc(F)cc(F)c2)cc1 [Example 21, 3-[4-(3,5-Difluoro-benzyloxy)-phenyl]-isoxazol-4-ylamine hydrochloride] | 257 nM
Nc1conc1-c1ccc(OCc2ccccc2Cl)cc1 [Example 22, 3-[4-(2-Chloro-benzyloxy)-phenyl]-isoxazol-4-ylamine hydrochloride] | 1740 nM
Cc1ccc(COc2ccc(-c3nocc3N)cc2)cc1C [Example 23, 3-[4-(3,4-Dimethyl-benzyloxy)-phenyl]-isoxazol-4-ylamine hydrochloride] | 148 nM
Nc1conc1-c1ccc(OCc2cccc(OC(F)(F)F)c2)cc1 [Example 24, 3-[4-(3-Trifluoromethoxy-benzyloxy)-phenyl]-isoxazol-4-ylamine hydrochloride] | 1350 nM
Nc1conc1-c1ccc(OCc2ccc(Cl)cc2)cc1 [Example 25, 3-[4-(4-Chloro-benzyloxy)-phenyl]-isoxazol-4-ylamine hydrochloride] | 246 nM
Nc1conc1-c1ccc(OCc2ccc(Cl)c(Cl)c2)cc1 [Example 26, 3-[4-(3,4-Dichloro-benzyloxy)-phenyl]-isoxazol-4-ylamine hydrochloride] | 162 nM
Cc1ccc(COc2ccc(-c3nocc3N)cc2)cc1 [Example 27, 3-[4-(4-Methyl-benzyloxy)-phenyl]-isoxazol-4-ylamine hydrochloride] | 196 nM
Nc1conc1-c1ccc(OCc2ccc(I)cc2)cc1 [Example 28, 3-[4-(4-Iodo-benzyloxy)-phenyl]-isoxazol-4-ylamine] | 126 nM
CC(C)c1ccc(COc2ccc(-c3nocc3N)cc2)cc1 [Example 29, 3-[4-(4-Isopropyl-benzyloxy)-phenyl]-isoxazol-4-ylamine] | 161 nM
CCS(=O)(=O)c1ccc(COc2ccc(-c3nocc3N)cc2)cc1 [Example 31, 3-[4-(4-Ethanesulfonyl-benzyloxy)-phenyl]-isoxazol-4-ylamine] | 65 nM
Nc1conc1-c1ccc(OCc2ccc3c(c2)CCS3(=O)=O)cc1 [Example 32, 3-[4-(1,1-Dioxo-2,3-dihydro-1H-1lambda*6*-benzo[b]thiophen-5-ylmethoxy)-phenyl]-isoxazol-4-ylamine] | 259 nM
Nc1conc1-c1ccc(OCc2ccc3c(c2)C=CS3(=O)=O)cc1 [Example 33, 3-[4-(1,1-Dioxo-1H-1lambda*6*-benzo[b]thiophen-5-ylmethoxy)-phenyl]-isoxazol-4-ylamine] | 411 nM
Nc1conc1-c1ccc(OCc2ccc(S(=O)(=O)c3ccccc3)cc2)cc1 [Example 34, 3-[4-(4-Benzenesulfonyl-benzyloxy)-phenyl]-isoxazol-4-ylamine] | 673 nM
CSc1ccc(COc2ccc(-c3nocc3N)cc2)cc1 [Example 35, 3-[4-(4-Methylsulfanyl-benzyloxy)-phenyl]-isoxazol-4-ylamine hydrochloride] | 99 nM
Nc1conc1-c1ccc(OCc2ccc(SC(F)(F)F)cc2)cc1 [Example 36, 3-[4-(4-Trifluoromethylsulfanyl-benzyloxy)-phenyl]-isoxazol-4-ylamine hydrochloride] | 51 nM
